Results from patent publication US8912190B2, “Substituted heterocyclic compounds” (Gilead Sciences, Inc., priority 2008, dated 2014).

What was measured:
[1] = target: T1, wild-type human cardiac sodium channel, hNav1.5 (Homo sapiens, UniProt Q14524); assay: Late INa screening assay (PatchXpress whole cell patch clamp); assay type: cell-based; conditions: HEK293 hNav1.5; for inhibition at 10 µM: compound at 10 uM, late INa generated with Tefluthrin or ATX II, read-out: Late INa 10 uM (percent block of late INa)
T1 construct: host or cells: HEK293
Experimental: The late sodium current (Late INa) and peak sodium current (Peak INa) assays were performed on an automated electrophysiology platform, PatchXpress 7000A (MDS Analytical Technologies, Sunnyvale, Calif.), using the whole cell patch clamp technique to measure currents through the cell membrane of up to 16 cells at a time. The assay used an HEK293 (human embryonic kidney) cell line heterologously expressing the wild-type human cardiac sodium channel, hNav1.5, purchased from Millipore (Billerica, Mass.). No beta subunits were coexpressed with the Na channel alpha subunit. Cells were maintained with standard tissue culture procedures, and stable channel expression was maintained with 400 μg/ml Geneticin in the culture medium. Cells isolated for use on PatchXpress were incubated for 5 minutes in Versene 1× and then for 2 minutes in 0.0125% Trypsin-EDTA (both at 37° C.) to ensure that 80-90% of the cells are single and not part of a cell cluster. Experiments were carried out at 24-27° C.
For both the Late INa and Peak INa assays, series resistance compensation was set to 50% and whole-cell compensation was performed automatically. Currents were low-pass filtered at 10 kHz and digitized at 31.25 kHz. Currents through open sodium channels were automatically recorded and stored in the DataXpress2 database (MDS Analytical Technologies, Sunnyvale, Calif.). Analysis was performed using DataXpress2 analysis software and data are compiled in Excel.
Compound stocks were routinely made in glass vials to 10 mM in dimethyl sulfoxide (DMSO). In some cases, when compounds were not soluble in DMSO, they are made in 100% ethanol. Stocks were sonicated as necessary. The extracellular solution for screening Late INa was composed of: 140 mM NaCl, 4 mM KCl, 1.8 mM CaCl2, 0.75 mM MgCl2, and 5 mM HEPES with pH adjusted to 7.4 using NaOH. The extracellular solution for screening Peak INa was composed of: 20 mM NaCl, 120 mM N-methyl-D glucamine, 4 mM KCl, 1.8 mM CaCl2, 0.75 mM MgCl2, and 5 mM HEPES with pH adjusted to 7.4 using HCl. The intracellular solution used to perfuse the inside of the cells for both the Late INa and Peak INa assays contained: 120 mM CsF, 20 mM CsCl, 5 mM EGTA, 5 mM HEPES and pH adjusted to 7.4 with CsOH. Compounds were diluted in extracellular solution to […] in glass vials and then transferred to glass well plates before robotic addition to the cells. The 0Na extracellular solution used at the end of each experiment for the Late INa and Peak INa assays to measure baseline current contained: 140 mM N-methyl-D-glucamine; 4 mM KCl; 1.8 mM CaCl2; 0.75 mM MgCl2; 5 mM HEPES and pH was adjusted to 7.4 with HCl.
For the Late INa assay, sodium channels were activated every 10 seconds (0.1 Hz) by depolarizing the cell membrane to −20 mV for 250 milliseconds (ms) from a holding potential of −120 mV. In response to a −20 mV voltage step, typical Nav1.5 sodium currents activated rapidly to a peak negative current and then inactivated nearly completely within 3-4 ms.
All compounds were tested to determine their activity in blocking the late sodium current. Late INa current was generated by adding 10 μM Tefluthrin (pyrethroid) to the extracellular solution while recording Na currents. For some experiments, 50 nM ATX II (sea anemone toxin), another late INa activator, was used to generate the late component. Both activators generated late components that are large, and thus block of the late component by compounds could be measured easily. For the purposes of the screening, late INa is defined as the mean current between 225 ms and 250 ms after stepping to −20 mV to activate Na channels. After establishing the whole cell recording configuration, late INa activators were added to each well 4 times over a 16-17 minute period so that the late component of the Na current reached a stable value. Compounds were then added (typically at 10 μM), in the presence of late INa activator, with 3 additions over the course of 7 or 8 minutes. […]

[2] = target: T2, hERG potassium channel (Homo sapiens, UniProt Q12809); assay: hERG screening assay (PatchXpress patch clamp, CHO cells); assay type: cell-based; conditions: CHO cells expressing hERG; for HERG 1 uM (block of hERG current): compound at 1 uM; for HERG 10 uM (block of hERG current): compound at 10 uM
T2 construct: expressed in transfected cells; host or cells: CHO (Chinese Hamster Ovary)
Experimental: Compounds were screened to test their activity in blocking the hERG potassium channel. The hERG channel is heterologously expressed in a CHO (Chinese Hamster Ovary) cell line. Cells were maintained with standard tissue culture procedures and stable channel expression was maintained with 500 μg/ml G418 in the culture medium. Cells were harvested for testing on the PatchXpress automated patch clamp with Accumax (Innovative Cell Technologies, San Diego, Calif.) to isolate single cells.
The following solutions were used for electrophysiological recordings. The external solution contained: 2 mM CaCl2; 2 mM MgCl2; 4 mM KCl; 150 mM NaCl; 10 mM Glucose; 10 mM HEPES (pH 7.4 with 1M NaOH, osmolarity). The internal solution contained: 140 mM KCl, 10 mM MgCl2, 6 mM EGTA, 5 mM HEPES, 5 mM ATP (pH adjusted to 7.25 with KOH).
hERG channels were activated when the voltage was stepped to +20 mV from the −80 mV holding potential. During a 5 second step at +20 mV, the channels activated and then largely inactivated, so the currents were relatively small. Upon returning to −50 mV from +20 mV, hERG currents transiently became much larger as inactivation was rapidly removed and then the channel closed. The first step to −50 mV for 300 ms was used as a baseline for measuring the peak amplitude during the step to −50 mV after channel activation. The peak current at −50 mV was measured both under control conditions and after addition of compound.
All compounds were prepared as 10 mM DMSO stocks in glass vials. Stock solutions were mixed by vigorous vortexing and sonication for about 2 minutes at room temperature. For testing, compounds were diluted in glass vials using an intermediate dilution step in pure DMSO and then further diluted to working concentrations in external solution. Dilutions were prepared no longer than 20 minutes before use.
After achieving the whole-cell configuration, cells were monitored for 90 seconds to assess stability and washed with external solution for 66 seconds. The voltage protocol described above was then applied to the cells every 12 seconds and throughout the whole procedure. Only cells with stable recording parameters and meeting specified health criteria were allowed to enter the compound addition procedure.
External solution containing 0.1% DMSO (vehicle) was applied to the cells first to establish the control peak current amplitude. After allowing the current to stabilize for […], 1 μM and then 10 μM test compounds were applied. Each compound concentration was added 4 times and cells were kept in test solution until the effect of the compound reached steady state or for a maximum of 12 minutes. After addition of test compound, a positive control (1 μM Cisapride) was added, and must block >95% of the current for the experiment to be considered valid. Washout in the external solution compartment was performed until the recovery of the current reached steady state. Data was analyzed using DataXpress, Clampfit (Molecular Devices, Inc., Sunnyvale) and Origin 7 (Originlab Corp.)

T2 sequence (Q12809 whole entry): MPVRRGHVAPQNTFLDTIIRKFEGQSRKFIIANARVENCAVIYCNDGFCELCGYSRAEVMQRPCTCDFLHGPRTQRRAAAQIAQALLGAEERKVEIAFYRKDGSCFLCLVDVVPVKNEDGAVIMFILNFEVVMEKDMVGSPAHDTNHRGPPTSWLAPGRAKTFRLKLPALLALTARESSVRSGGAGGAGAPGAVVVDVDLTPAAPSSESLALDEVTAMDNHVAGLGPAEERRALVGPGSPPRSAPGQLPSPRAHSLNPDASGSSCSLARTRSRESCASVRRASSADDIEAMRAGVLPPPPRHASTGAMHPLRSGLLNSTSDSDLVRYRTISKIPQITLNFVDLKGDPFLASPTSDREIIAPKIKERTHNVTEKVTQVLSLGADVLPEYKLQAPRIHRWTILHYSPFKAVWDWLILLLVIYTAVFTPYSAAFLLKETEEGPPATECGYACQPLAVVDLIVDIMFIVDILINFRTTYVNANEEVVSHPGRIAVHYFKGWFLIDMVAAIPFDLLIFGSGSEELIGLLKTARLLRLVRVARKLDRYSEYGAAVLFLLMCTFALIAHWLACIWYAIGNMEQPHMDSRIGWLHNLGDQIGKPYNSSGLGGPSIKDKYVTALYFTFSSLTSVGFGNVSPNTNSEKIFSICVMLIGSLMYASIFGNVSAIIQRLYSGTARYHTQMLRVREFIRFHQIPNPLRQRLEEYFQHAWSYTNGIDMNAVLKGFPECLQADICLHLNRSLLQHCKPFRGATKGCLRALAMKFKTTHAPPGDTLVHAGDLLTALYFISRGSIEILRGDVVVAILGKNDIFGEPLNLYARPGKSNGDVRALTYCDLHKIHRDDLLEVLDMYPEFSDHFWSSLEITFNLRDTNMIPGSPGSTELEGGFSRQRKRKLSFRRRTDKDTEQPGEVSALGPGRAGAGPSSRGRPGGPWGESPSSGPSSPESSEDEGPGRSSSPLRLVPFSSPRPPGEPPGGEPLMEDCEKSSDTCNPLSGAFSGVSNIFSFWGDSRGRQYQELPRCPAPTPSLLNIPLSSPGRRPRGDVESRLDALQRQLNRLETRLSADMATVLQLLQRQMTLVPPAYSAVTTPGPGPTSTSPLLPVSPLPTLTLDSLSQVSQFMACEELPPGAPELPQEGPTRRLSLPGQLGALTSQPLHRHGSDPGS
T1 sequence (Q14524 whole entry): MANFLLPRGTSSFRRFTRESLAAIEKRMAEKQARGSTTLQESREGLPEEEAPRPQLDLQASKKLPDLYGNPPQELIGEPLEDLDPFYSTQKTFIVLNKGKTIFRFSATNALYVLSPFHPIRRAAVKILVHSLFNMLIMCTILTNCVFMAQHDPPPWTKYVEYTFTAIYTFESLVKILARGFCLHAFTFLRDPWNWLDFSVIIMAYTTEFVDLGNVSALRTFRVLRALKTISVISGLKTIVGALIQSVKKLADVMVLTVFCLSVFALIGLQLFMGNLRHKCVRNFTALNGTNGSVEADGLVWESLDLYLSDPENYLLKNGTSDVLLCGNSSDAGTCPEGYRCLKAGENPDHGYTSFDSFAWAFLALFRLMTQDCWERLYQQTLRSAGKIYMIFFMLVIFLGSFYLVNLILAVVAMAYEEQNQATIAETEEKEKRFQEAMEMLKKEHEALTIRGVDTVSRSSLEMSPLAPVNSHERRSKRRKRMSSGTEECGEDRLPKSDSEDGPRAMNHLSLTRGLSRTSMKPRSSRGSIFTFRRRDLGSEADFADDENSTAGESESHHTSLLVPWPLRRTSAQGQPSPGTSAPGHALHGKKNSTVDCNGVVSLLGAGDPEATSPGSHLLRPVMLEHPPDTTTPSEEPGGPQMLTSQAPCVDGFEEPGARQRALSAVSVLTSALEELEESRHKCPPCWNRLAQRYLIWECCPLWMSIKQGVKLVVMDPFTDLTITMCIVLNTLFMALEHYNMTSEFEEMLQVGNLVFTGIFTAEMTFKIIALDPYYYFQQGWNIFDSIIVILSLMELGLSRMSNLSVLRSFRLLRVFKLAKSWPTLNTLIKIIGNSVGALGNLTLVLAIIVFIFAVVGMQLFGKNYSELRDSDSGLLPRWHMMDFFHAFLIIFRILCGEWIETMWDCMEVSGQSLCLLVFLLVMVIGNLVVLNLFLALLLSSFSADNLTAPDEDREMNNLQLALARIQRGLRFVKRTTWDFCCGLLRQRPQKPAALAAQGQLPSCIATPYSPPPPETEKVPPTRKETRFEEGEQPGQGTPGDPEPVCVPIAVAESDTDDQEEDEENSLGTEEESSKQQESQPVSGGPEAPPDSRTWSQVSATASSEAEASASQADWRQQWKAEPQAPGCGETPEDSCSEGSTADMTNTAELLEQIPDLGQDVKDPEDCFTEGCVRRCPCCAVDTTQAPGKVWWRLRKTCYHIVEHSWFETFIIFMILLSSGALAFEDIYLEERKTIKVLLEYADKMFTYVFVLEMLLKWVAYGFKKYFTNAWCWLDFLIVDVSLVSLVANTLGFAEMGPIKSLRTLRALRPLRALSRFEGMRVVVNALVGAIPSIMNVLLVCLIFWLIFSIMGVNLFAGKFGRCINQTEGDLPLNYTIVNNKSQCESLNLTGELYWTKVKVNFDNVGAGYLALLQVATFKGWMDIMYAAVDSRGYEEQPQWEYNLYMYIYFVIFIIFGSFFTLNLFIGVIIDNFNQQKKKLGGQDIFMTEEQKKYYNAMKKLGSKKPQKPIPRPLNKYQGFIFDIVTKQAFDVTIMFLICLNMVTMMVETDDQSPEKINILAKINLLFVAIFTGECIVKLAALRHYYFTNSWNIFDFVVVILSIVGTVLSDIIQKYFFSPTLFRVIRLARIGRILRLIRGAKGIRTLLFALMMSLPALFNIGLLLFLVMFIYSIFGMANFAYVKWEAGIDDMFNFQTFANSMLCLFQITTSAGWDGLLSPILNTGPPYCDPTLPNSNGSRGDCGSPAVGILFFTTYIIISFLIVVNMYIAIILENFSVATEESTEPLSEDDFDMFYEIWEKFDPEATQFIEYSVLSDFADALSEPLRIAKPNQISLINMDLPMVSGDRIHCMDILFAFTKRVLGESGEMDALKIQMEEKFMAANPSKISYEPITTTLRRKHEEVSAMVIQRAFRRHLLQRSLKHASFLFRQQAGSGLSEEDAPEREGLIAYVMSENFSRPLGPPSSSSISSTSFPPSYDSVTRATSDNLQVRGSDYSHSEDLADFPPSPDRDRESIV

| Structure (SMILES) | Late INa 1 uM (percent block of late INa) ([1]; compound at 1 uM) [%] | inhibition at 10 µM [1] [%] | HERG 1 uM (block of hERG current) [2] [%] | HERG 10 uM (block of hERG current) [2] [%] |
| --- | --- | --- | --- | --- |
| Cn1c(=O)c(C(C)(C)C)nc2ccc(-c3cccc(OC(F)(F)F)c3)cc21 [3-tert-butyl-1-methyl-7-[3-(trifluoromethoxy)phenyl] quinoxalin-2(1H)-one] | 51.3 | 77.5 | 10.0 | 10.0 |
| CCOC(=O)c1nc2ccc(-c3ccc(OC(F)(F)F)cc3)cc2n(C)c1=O [ethyl 4-methyl-3-oxo-6-[4-(trifluoromethoxy)phenyl]-3,4-dihydroquinoxaline-2-carboxylate] | – | 49.3 | 34.0 | 79.5 |
